The values below come from patent US12054494B2, “Compound with anticancer activity” (KYOWA KIRIN CO., LTD., priority 2018, dated 2024).

The nature of data set [1]: Body weight in SU-DHL-4 subcutaneous transplant model. It counts as in vivo. Particulars: 3 mg/kg intravenously 5 times a week for 2 weeks, male SCID mouse; for Body weight: mean of n=5. On the procedure:
(§1) 1×10^7 cells of DLBCL strain SU-DHL-4 (Code No. ACC 495, Deutsche Sammlung von Mikroorganismen and Zellkulturen GmbH) suspended in a 1:1 mixed solution of PBS and matrigel (CORNING Code No. 354234) were transplanted subcutaneously to the ventral side of a male SCID mouse. Eighteen days after the transplantation, the body weight and the tumor diameter were measured, the tumor volume was calculated by the following formula, and the mice were divided into two groups (n=5) so that the average tumor volume of each group was equal. E-workbook software (ID Business Solusions) was used for grouping and measurement. [Tumor volume (mm^3)]=[Tumor long diameter (mm)]×[Tumor short diameter (mm)]^2×0.5
The test was conducted in two groups, a vehicle administration group and a compound 1a administration group (compound administration group). To the compound 1a administration group, a solution of compound 1a dissolved in 30% DMSO/3% Tween 80/physiological saline so as to give a final concentration of 0.6 mg/mL was administered intravenously (tail vein) at 5 mL/kg (3 mg/kg) 5 times a week for 2 weeks. To the vehicle administration group, 30% DMSO/3% Tween 80/physiological saline was administered intravenously (tail vein) at 5 mL/kg on the same schedule as the compound 1a administration group. After the start of the test, body weight and tumor diameter were measured twice a week. The tumor volume on each measurement day was calculated by the above formula. The tumor growth rate (hereinafter referred to as V/V0) was calculated by dividing the tumor volume V on each measurement day by the tumor volume V0 on the test start day (Day 0). The T/C was calculated by dividing the average value (T) of V/V0 of each group by the average value (C) of the vehicle administration group.

For another data set, the system named is SU-DHL-4 cells. The experiment in a line: Inhibitory effect on cell viability (Cell Counting Kit-8). To be noted: Homo sapiens, 72 hours culture with test compound, concentration showing 90% inhibition rate of cell viability. It counts as cell-based. The essentials: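 SU-DHL-4 cells (2000/well, RPMI1640 with 10% FBS) precultured 18-25 h, then exposed to a 9-step compound dilution series (0.1% DMSO final) for 72 h at 37° C. Viability by CCK-8 absorbance at 450 nm after 2-3 h; IC90 computed from inhibition rate relative to untreated and cell-free wells.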
On the technique in general: Tetrazolium dyes change colour on reduction, which living cells bring about.

The subject of data set [2] is DLBCL strain SU-DHL-4 subcutaneously transplanted tumor. In words: Antitumor effect on subcutaneous transplant model in SCID mouse. It counts as in vivo. To be noted: 3 mg/kg intravenously 5 times a week for 2 weeks; male SCID mouse; versus vehicle administration group. On the procedure: Antitumor Effect on Subcutaneous Transplant Model in SCID Mouse DLBCL Strain SU-DHL-4
as §1, with “[Tumor volume (mm^3)]=[Tumor long diameter (mm)]×[Tumor short diameter (mm)]^2×0.5” left out
The test was conducted in two groups, a vehicle administration group and a compound 1a administration group (compound administration group). […] After the start of the test, body weight and tumor diameter were measured twice a week. The tumor volume on each measurement day was calculated by the above formula. The tumor growth rate (hereinafter referred to as V/V0) was calculated by dividing the tumor volume V on each measurement day by the tumor volume V0 on the test start day (Day 0). The T/C was calculated by dividing the average value (T) of V/V0 of each group by the average value (C) of the vehicle administration group.

For data set [3], the system named is MYC mRNA expression in SU-DHL-4 cells. In words: Suppressive effect on MYC mRNA expression (qRT-PCR). It is filed as cell-based. Particulars: test compound 100 nmol/L, 6 hours. On the procedure:
Suppressive Effect on MYC mRNA Expression
SU-DHL-4 cells were cultured at 37° C. using a carbon dioxide gas incubator (95% air, 5% CO2) in RPMI1640 medium in which FBS in an amount to give a final concentration of 10 vol % and PS in an amount to give a final concentration of 1 vol % were added. The cells were passaged twice a week at a volume of 20-40 mL so as to maintain a cell concentration of 1×10^6 cells/mL or less.
The cultured SU-DHL-4 cells were seeded at 6×10^5 cells/well in a transparent 6-well plate (Code No. 140675, Thermo Fisher Scientific). After seeding, the cells were precultured at 37° C. in a carbon dioxide gas incubator for 18 to 25 hours. Next, a 0.1 mmol/L DMSO solution of the test compound was prepared, diluted so that the concentration will be 200 times the final concentration in the RPMI1640 medium containing the above FBS and PS, and 1/200 volume of the diluted solution was added to each well. At this time, the final concentration of DMSO was adjusted to be 0.1 vol %. After adding the test compound, the cells were cultured at 37° C. in a carbon dioxide gas incubator for 6 hours.
Then, the cells were collected by centrifugation and used for extraction of mRNA. mRNA extraction from cells was performed using Maxwell® 16 LEV simplyRNA Purification Kits (Code No. AS1270, Promega). The mRNA recovery protocol was performed according to the manufacturer's recommended protocol attached to the kit.
0.001 mg of the recovered mRNA was converted to cDNA by SuperScript IV VILO Master Mix with ezDNase Enzyme (Code No. 11766050, Thermo Fisher Scientific). The cDNA conversion was performed, according to the manufacturer's recommended protocol attached to the kit, in 0.020 mL of the reaction solution, and GeneAmp® PCR System 9700 (Applied Biosystems) was used. The cDNA-converted sample was diluted 10-fold by adding 0.180 mL of RNase Free Water (Code No. 10977-023, Thermo Fisher Scientific) and used for quantitative real-time polymerase chain reaction (qRT-PCR). For the calibration curve of qRT-PCR, 0.08 mL of RNase Free Water was added to a cDNA sample using DMSO as a test compound for 5-fold dilution. Further, two 5-fold dilutions were prepared stepwise, and these three samples were used as the calibration curve samples.
The following reagents were used for qRT-PCR: TaqMan Gene Expression Assays, Inventoried (Primer probe: Code No. 4331182, Thermo Fisher Scientific, Assay ID: (i) MYC: Hs00153408_m1, (ii) ACTB: Hs01060665_g1, (iii) GAPDH: Hs04420697_g1, (iv) HPRT1: Hs02800695_m1); 2X TaqManR Fast Universal PCR Master Mix, no AmpEraseR UNG (Master Mix: Code No. 4367846, Thermo Fisher Scientific).
Primer probe (0.001 mL), Master Mix (0.010 mL), water (0.004 mL) and the diluted cDNA sample (0.005 mL) were mixed, and qRT-PCR analysis was performed. For qRT-PCR analysis, QuantStudio 7 Flex (Thermo Fisher Scientific) or 7500 Fast Real-Time PCR (Applied Biosystems) was used to measure in Fast mode and analyze. The expression level of the MYC gene was determined by quantifying ACTB, GAPDH, and HPRT1 as housekeeping genes and correcting by the following formula to calculate the suppression rate of (%) of MYC mRNA expression when the test compound was allowed to act at a concentration of 100 nmol/L. Corrected MYC expression=A/B • A: MYC expression level • B: Geometric mean of expression levels of ACTB, GAPDH and HPRT1
Using the corrected values, the suppression rate of MYC expression for the wells to which […] was calculated by the following formula. Suppression rate of MYC expression (%)=100−C/D×100 • C: Corrected MYC expression level in a well containing test compound • D: Corrected MYC expression level in a well to which test compound was not added

Structures are written as SMILES.

With `CCC(=O)N1c2ccccc2[C@H](Nc2ccc(C(=O)NCCCNC(=O)c3ccc(N[C@@H]4C[C@H](C)N(C(=O)CC)c5ccccc54)cc3)cc2)C[C@@H]1C` (single isomer, unassigned) [Compound 1a, N,N′-(Propane-1,3-diyl)bis(4-{[(2S*,4R*)-2-methyl-1-propionyl-1,2,3,4-tetrahydroquinolin-4-yl]amino}benzamide)], the “Weight loss (in words)” value in data set [1] was “no weight loss was observed”. For the same compound, the Body weight came out at 24.56 g in data set [1] (Day 0); 25.36 g in data set [1] (Day 3); 25.44 g in data set [1] (Day 7); 25.14 g in data set [1] (Day 10); 25.74 g in data set [1] (Day 14); 26.23 g in data set [1] (Day 18). Also, in the data set on SU-DHL-4 cells, the IC90 (usually the concentration at which the effect reaches the 90% level) turned out to be 5.21 nM. Further, in data set [2], the “Antitumor effect on SU-DHL-4 subcutaneously transplanted tumor (in words)” value was “strong antitumor effect”.

On to `Cc1sc2c(c1C)C(c1ccc(Cl)cc1)=N[C@@H](CC(=O)NCCOCCOCCOCCOCCOCCOCCOCCNC(=O)C[C@@H]1N=C(c3ccc(Cl)cc3)c3c(sc(C)c3C)-n3c(C)nnc31)c1nnc(C)n1-2` [compound 2, reference compound], for which the “Suppression rate of MYC mRNA expression” value in data set [3] amounted to 57.7%.
